Source: patent publication US20040235883A1, “Alkyl-substituted imidazopyridines for the treatment of gastrointestinal disorders” (priority 2001, published 2004)

Test system: pentagastrin-stimulated acid secretion of the perfused rat stomach
Experiment: Secretion-inhibiting action on the perfused rat stomach (pentagastrin-stimulated acid secretion, intraduodenal administration in vivo)
Settings: anesthetized CD rat, female, pentagastrin 1 μg/kg i.v. infusion
Description: Testing of the Secretion-Inhibiting Action on the Perfused Rat Stomach
In Table A which follows, the influence of the compounds according to the invention on the pentagastrin-stimulated acid secretion of the perfused rat stomach after intraduodenal administration in vivo is shown.
The abdomen of anesthetized rats (CD rat, female, 200-250 g; 1.5 g/kg i.m. urethane) was opened after tracheotomy by a median upper abdominal incision and a PVC catheter was fixed transorally in the esophagus and another via the pylorus such that the ends of the tube just projected into the gastric lumen. The catheter leading from the pylorus led outward into the right abdominal wall through a side opening.
After thorough rinsing (about 50-100 ml), warm (37° C.) physiological NaCl solution was continuously passed through the stomach (0.5 ml/min, pH 6.8-6.9; Braun-Unita I). The pH (pH meter 632, glass electrode EA 147; φ=5 mm, Metrohm) and, by titration with a freshly prepared 0.01 N NaOH solution to pH 7 (Dosimat 665 Metrohm), the secreted HCl were determined in the effluent in each case collected at an interval of 15 minutes.
The gastric secretion was stimulated by continuous infusion of […] (=1.65 ml/h) of i.v. pentagastrin (left femoral vein) about 30 min after the end of the operation (i.e. after determination of 2 preliminary fractions). […]

Molecule	Inhibition of acid secretion (%) (dose 0.3 μmol/kg i.d.)	Inhibition of acid secretion (%) (dose 1 μmol/kg i.d.)
(7S,8S,9R)-7-Cyanomethyl-8-hydroxy-2,3-dimethyl-7,8,9,10-tetrahydroimidazo[1.2h]-[1.7]naphthyridine [Example 9]	52	
Cc1nc2c3c(ccn2c1C)[C@H](C)[C@H](O)CN3 [Example 8, (7S,8S,9R)-8-Hydroxy-2,3,7-trimethyl-7,8,9,10-tetrahydroimidazo[1.2-h][1.7]naphthyridine]		93
